Results from patent US20040053859A1, “Preventive or therapeutic agent for cancer containing cyanidin compound as active ingredient” (priority 2000, published 2004).

Legend:
large intestine cancer = assay: carcinostatic effect against PhIP-promoted, DMH-initiated large intestine cancer in rats (macroscopic pathologic examination); assay type: in vivo, F344/DuCrj male rats; details: DMH 20 mg/kg s.c. once a week for 4 weeks, then feed for 32 weeks, group 2 PhIP 200 ppm only, group 3 PhIP 200 ppm + PCC 5%
From the text: Using DMH (1,2-dimethylhydradinedihydrochloride, manufactured by Tokyo Kasei Kogyo Co., Ltd., Lot. FIH01-UR) as an initiator of large intestine cancer, the carcinostatic effect of a purple corn pigment (manufactured. by San-Ei gen F.F.I., Inc. Lot. 990519, containing 10.8% of the compound of the formula (III) and 6.5% of the compound of the formula (IV), hereinafter referred to as PCC) was examined against the carcinogenesis promoting effect of PhIP (2-amino-1-methyl-6-phenylimidazo [4,5-b] pyridine (Toronto Research Chemical Inc., Lot. 5-YCX-55-2).
(§1) F344/DuCrj male rats (Charles River Japan Inc.) were used as test animals. The rats were subjected to a subcutaneous administration of DMH of 20 mg/kg once a week, for 4 weeks. They were divided into a group 1 fed with a basic feed (labo MR stock, manufactured by Nihon Nosan Kogyo KK), a group 2 fed with PhIP (200 ppm) only, and a group 3 fed with a mixture of PhIP (200 ppm) and PCC (5%). The rats (20 per group) were allowed to take the feed freely for 32 weeks.
The rats alive at the end of the experiment were fasted and then bled for euthanasia under deep anesthesia. They were dissected together with the dead rat of the group 2 to macroscopically examine tumorigenesis in various organs in the thoracic cavity and the abdominal cavity.
In every rat, tumorigenesis was not observed in other organs than the large intestine (cecum, colon, rectum). The tumor generated in the large intestine was recognized as cancer by the macroscopic pathologic examination.

[1] = survival, clinical manifestation, weight and water intake of rats during feeding of test substances; assay type: in vivo, F344/DuCrj male rats
Protocol: as §1
With an electronic balance (LC2200, manufactured by Sartorius), the weight of each rat was measured once a week until 14th week after initiation of the experiment, and thereafter measured once every two weeks. The feed intake amount of each rat was also measured once a week until 14th week, and thereafter measured once every other week in the same manner as the weight measurement, except that the feed intake amount for two days was measured.
With an electronic balance (LC2200, manufactured by Sartorius), an intake amount of water for two days was measured once a week until 14th week, and thereafter measured once every other week.

SMILES: Cn1c(N)nc2ncc(-c3ccccc3)cc21 [PhIP, 2-amino-1-methyl-6-phenylimidazo[4,5-b]pyridine]
- Number of rats having tumor (large intestine cancer; 20 rats per group): 17
- Numbers of tumors (large intestine cancer; 20 rats per group): 48
- Number of tumors/number of rats having tumor (large intestine cancer): 2.82
- water intake amount ([1]; 5th and 6th weeks, group 2 PhIP 200 ppm, group 3 PhIP 200 ppm + PCC 5%, group 1 about 20): about 19 g/animal/day
- survival until the end of the experiment ([1]; 32 weeks feeding after DMH, 20 rats per group): one in the group 2 died during the experiment
- weight of the rats reached during administration of test substances (from about 230 g) ([1]; group 2 PhIP 200 ppm, group 3 PhIP 200 ppm + PCC 5%, group 1 basic feed about 360 g): ~315 g
